Series [1] concerns ADP-induced human platelet aggregation. Description: Mouse ex vivo studies: plasma of orally dosed mice tested on ADP-induced human platelet aggregation. The note with it: 1 mg/kg, p.o; for Last time point * (time in hours): time point after which the activity fell below 30%; for Activity (%) at last time point / Activity (%) at peak: ex vivo in mice. How it is done:
Mouse ex vivo Studies: (Weller, T., Alig, L., et al J. Med. Chem., 1996, 39, 3139-3147)
Mice of either sex weighing between 25-35 g were orally fed the test compound. Blood was collected, from the abdominal aorta into ACD solution, at different time-points ranging from 15 min to 6 h. The blood samples were centrifuged at 2000×g for 10 min to get PFP. This plasma was separated and used as test sample to study its effect on ADP-induced human platelet aggregation (Table 3).

Series [2] relates to ADP-induced guinea pig platelet aggregation. The series can be described thus: Guinea pig ex vivo studies: ADP-induced guinea pig platelet aggregation after oral dosing. Conditions: ex vivo in Guinea pigs, 3.1 mg/kg, p.o; for Last time point * (time in hours): time point after which the activity fell below 30%. How it is done:
Guinea Pig Ex vivo Studies:
Guinea pigs of either sex weighing between 500-800 g were orally fed the test compound. Blood was collected, from the carotid artery into ACD solution, at different time-points ranging from 1 to 24 h. PRP was separated and the platelet count adjusted to 3×10^8 platelets/ml using PFP. The effect of the test compound on ADP-induced guinea pig platelet aggregation was studied (Table 4).

This is an account of results in patent US7964628B2, “Fibrinogen receptor antagonists and their use” (Piramal Life Sciences Limited, priority 2003, dated 2011).

Counter-ions that a name gives are not always drawn.

One may read the melting point as the temperature of the solid-liquid transition.

`CCOC(=O)COc1ccc(C(=O)CN2Cc3cc(C(=N)NO)ccc3C2=O)c(O)c1` [Example 42, (3-Hydroxy-4-{2-[5-(N-hydroxycarbamimidoyl)-1-oxo-1,3-dihydro-isoindol-2-yl]-acetyl}-phenoxy)-acetic acid ethyl ester] gave a melting point of 197 to 198 °C. In series [1], the “Peak activity (time in hours)” value amounted to 0.75 h, the “Last time point * (time in hours)” value was 6 h, the “Activity (%) at last time point” value was 62% and the “Activity (%) at peak” value is listed as 100%. Besides, in series [2], the “Activity (%) at last time point” value was found to be 78%, the “Activity (%) at peak” value was found to be 100%, the “Peak activity (time in hours)” value turned out to be 7 h and the “Last time point * (time in hours)” value was found to be 15 h.

In the case of `CCOC(=O)COc1ccc(C(CN2Cc3cc(C(=N)NO)ccc3C2=O)=NO)cc1OCC(=O)OCC` [Example 23, (2-Ethoxycarbonylmethoxy-4-{2-[5-(N-hydroxycarbamimidoyl)-1-oxo-1,3-dihydro-isoindol-2-yl]-1-hydroxyimino-ethyl}-phenoxy)-acetic acid ethyl ester], the melting point lay in the range of 181 to 182 °C. In series [1], the “Peak activity (time in hours)” value worked out at 1 h, the “Last time point * (time in hours)” value turned out to be 4 h, the “Activity (%) at last time point” value stood at 35% and the “Activity (%) at peak” value is 100%. Also, in series [2], the “Activity (%) at last time point” value is 48%, the “Activity (%) at peak” value amounted to 100%, the “Peak activity (time in hours)” value stood at 7 h and the “Last time point * (time in hours)” value turned out to be 13 h.

For `CCOC(=O)COc1ccc(C(=O)CN2Cc3cc(C(=N)NO)ccc3C2=O)c(O)c1SCC` [Example 49, (2-Ethylsulfanyl-3-hydroxy-4-{2-[5-(N-hydroxycarbamimidoyl)-1-oxo-1,3-dihydro-isoindol-2-yl]-acetyl}-phenoxy)-acetic acid ethyl ester], the melting point was in the range of 182 to 183 °C. Further, in series [1], the “Peak activity (time in hours)” value is 0.75 h, the “Last time point * (time in hours)” value was 3 h, the “Activity (%) at last time point” value came to 38% and the “Activity (%) at peak” value amounted to 65%.

`CCOC(=O)COC1CCN(C(=O)CN2Cc3cc(C(=N)NC(=O)OC(C)(C)C)ccc3C2=O)CC1` (hydrate or solvate) [Example 72, (1-{2-[5-(tert-Butoxycarbonylamino-imino-methyl)-1-oxo-1,3-dihydro-isoindol-2-yl]-acetyl}-piperidin-4-yloxy)-acetic acid ethyl ester]: the melting point lay within 83 to 85 °C.

In the case of `CCOC(=O)COc1ccc(C(=O)CN2Cc3cc(C(=N)N)ccc3C2=O)c(OCC(=O)OCC)c1` (as salt: salt) (hydrate or solvate) [Example 47, (4-{2-[5-Carbamimidoyl-1-oxo-1,3-dihydro-isoindol-2-yl]-acetyl}-3-ethoxycarbonylmethoxy-phenoxy)-acetic acid ethyl ester], the melting point fell in the range of 186 to 188 °C.

The compound `CCCc1c(OCC(=O)OCc2ccccc2)ccc(C(=O)CN2Cc3cc(C(=N)NO)ccc3C2=O)c1O` [Example 59, (3-Hydroxy-4-{2-[5-(N-hydroxycarbamimidoyl)-1-oxo-1,3-dihydro-isoindol-2-yl]-acetyl}-2-propyl-phenoxy)-acetic acid benzyl ester] gave a melting point of 199 to 200 °C.

As to `CCCc1c(OCC(=O)OCC)ccc(C(=O)CN2Cc3cc(C(=N)NO)ccc3C2=O)c1O` [Example 58, (3-Hydroxy-4-{2-[5-(N-hydroxycarbamimidoyl)-1-oxo-1,3-dihydro-isoindol-2-yl]-acetyl}-2-propyl-phenoxy)-acetic acid ethyl ester], the melting point was 211 to 212 °C.

`CCN(CC)C(=O)COc1ccc(C(=O)CN2Cc3cc(C(=N)N)ccc3C2=O)cc1` (as salt: salt) [Example 25, 2-(4-{2-[5-Carbamimidoyl-1-oxo-1,3-dihydro-isoindol-2-yl]-acetyl}-phenoxy)-N,N-diethyl-acetamide] registered a melting point of 194 to 195 °C.

`CCOC(=O)COc1cc(O)c(C(=O)CN2Cc3cc(C(=N)NO)ccc3C2=O)c(O)c1` [Example 63, (3,5-Dihydroxy-4-{2-[5-(N-hydroxycarbamimidoyl)-1-oxo-1,3-dihydro-isoindol-2-yl]-acetyl}-phenoxy)-acetic acid ethyl ester] had a melting point of 229 to 230 °C.

As for `N=C(N)c1ccc2c(c1)CN(CC(=O)c1ccc(OCC(=O)OC3CCN(C(=O)OCc4ccccc4)CC3)cc1)C2=O` (hydrate or solvate) [Example 26, 4-(2-{4-[2-(5-Carbamimidoyl-1-oxo-1,3-dihydro-isoindol-2-yl)-acetyl]-phenoxy}-acetoxy)-piperidine-1-carboxylic acid benzyl ester], the melting point was 180 to 181 °C.

As to `CCOC(=O)COc1cc(O)c(C(=O)CN2Cc3cc(C(=N)NO)ccc3C2=O)cc1C(C)(C)C` [Example 52, (2-tert-Butyl-5-hydroxy-4-{2-[5-(N-hydroxycarbamimidoyl)-1-oxo-1,3-dihydro-isoindol-2-yl]-acetyl}-phenoxy)-acetic acid ethyl ester], the melting point lay in the range of 177 to 178 °C.

Regarding `CCOC(=O)COc1ccc(C(=O)CN2Cc3cc(C(=N)NO)ccc3C2=O)c(O)c1OCC(=O)OCC` [Example 64, (2-Ethoxycarbonylmethoxy-3-hydroxy-4-{2-[5-(N-hydroxycarbamimidoyl)-1-oxo-1,3-dihydro-isoindol-2-yl]-acetyl}-phenoxy)-acetic acid ethyl ester], the melting point lay within 153 to 155 °C.

Compound `CCOC(=O)COc1ccc(C(=O)CN2Cc3cc(NC(C)=N)ccc3C2=O)c(O)c1` (as salt: iodide) (hydrate or solvate) [Example 74, (4-{2-[5-Acetimidoylamino-1-oxo-1,3-dihydro-isoindol-2-yl]-acetyl}-3-hydroxy-phenoxy)-acetic acid ethyl ester] showed a melting point of 196 to 197 °C.

Regarding `CCOC(=O)COc1ccc(C(=O)CN2Cc3cc(-c4nc(=O)o[nH]4)ccc3C2=O)c(O)c1` [Example 78, (3-Hydroxy-4-{2-[1-oxo-5-(5-oxo-2,5-dihydro-[1,2,4]oxadiazol-3-yl)-1,3-dihydro-isoindol-2-yl]-acetyl}-phenoxy)-acetic acid ethyl ester], the melting point lay in the range of 223 to 225 °C.

For `N=C(N)c1ccc2c(c1)CN(CC(=O)c1ccc(OCC(=O)O)cc1)C2=O` (as salt: hydrochloride) (hydrate or solvate) [Example 17, (4-{2-[5-Carbamimidoyl-1-oxo-1,3-dihydro-isoindol-2-yl]-acetyl}-phenoxy)-acetic acid], the melting point was > 250 °C (dec.).

Compound `CCOC(=O)COC1CCN(C(=O)CCN2Cc3cc(C(=N)NO)ccc3C2=O)CC1` [Example 69, (1-{3-[5-(N-Hydroxycarbamimidoyl)-1-oxo-1,3-dihydro-isoindol-2-yl]-propionyl}-piperidin-4-yloxy)-acetic acid ethyl ester] showed a melting point of 151 to 152 °C.
